Reference: the NIST ThermoML archive (doi:10.1016/j.fluid.2018.04.007)
± gives the expanded uncertainty stated by the source.

How the values were obtained:
[1] = 101 kPa, Liquid, Vibrating tube method
[2] = refractive index (Na D-line) (dimensionless); conditions: 101 kPa, Liquid, Standard Abbe refractometry
[3] = relative permittivity at various frequencies (dimensionless); conditions: 101 kPa, Liquid, Frequency=1 MHz, Parallel plate capacitor
[4] = relative permittivity at various frequencies (dimensionless); xn = mol fraction of the nth substance listed; conditions: 101 kPa, Liquid, Frequency=1 MHz, Parallel plate capacitor, x1 = 1
[5] = refractive index (Na D-line) (dimensionless); xn = mol fraction of the nth substance listed; conditions: 101 kPa, Liquid, Standard Abbe refractometry, x1 = 1

mass density ([1]; 293.15 K) [kg/m3] | mass density ([1]; 298.15 K) [kg/m3] | mass density ([1]; 303.15 K) [kg/m3] | refractive index ([2]; 293.15 K) | refractive index ([2]; 298.15 K) | refractive index ([2]; 303.15 K) | relative permittivity ([3]; 293.15 K) | relative permittivity ([3]; 298.15 K) | relative permittivity ([3]; 303.15 K) | relative permittivity ([4]; 293.15 K) | relative permittivity ([4]; 298.15 K) | relative permittivity ([4]; 303.15 K) | refractive index ([5]; 293.15 K) | refractive index ([5]; 298.15 K) | refractive index ([5]; 303.15 K) | Compound
822.37 ± 2 | 818.9 ± 2 | 815.37 ± 2 | 1.42425 ± 0.00033 | 1.42235 ± 0.00033 | 1.42047 ± 0.00033 | 12.019 ± 0.6 | 11.504 ± 0.59 | 11.014 ± 0.57 | – | – | – | – | – | – | CCCCCCCO [heptan-1-ol]
– | – | – | – | – | – | – | – | – | 12.019 ± 0.6 | 11.504 ± 0.59 | 11.014 ± 0.57 | 1.42425 ± 0.00033 | 1.42235 ± 0.00033 | 1.42047 ± 0.00033 | CCCCCCCO [heptan-1-ol] + CCCCCCN
– | – | – | – | – | – | – | – | – | 15.701 ± 0.68 | 15.102 ± 0.67 | 14.536 ± 0.65 | 1.40985 ± 0.00033 | 1.40793 ± 0.00033 | 1.4059 ± 0.00033 | CCCCCO [pentan-1-ol] + CCCCCCN
814.66 ± 2 | 811.03 ± 1.9 | 807.35 ± 1.9 | 1.40985 ± 0.00033 | 1.40793 ± 0.00033 | 1.4059 ± 0.00033 | 15.701 ± 0.68 | 15.102 ± 0.67 | 14.536 ± 0.65 | – | – | – | – | – | – | CCCCCO [pentan-1-ol]

The remaining lines, values behind:

Compound | mass density ([1]; 293.15 K) [kg/m3] | mass density ([1]; 298.15 K) [kg/m3] | mass density ([1]; 303.15 K) [kg/m3] | refractive index ([2]; 293.15 K) | refractive index ([2]; 298.15 K) | refractive index ([2]; 303.15 K) | relative permittivity ([3]; 293.15 K) | relative permittivity ([3]; 298.15 K) | relative permittivity ([3]; 303.15 K) | relative permittivity ([4]; 293.15 K) | relative permittivity ([4]; 298.15 K) | relative permittivity ([4]; 303.15 K) | refractive index ([5]; 293.15 K) | refractive index ([5]; 298.15 K) | refractive index ([5]; 303.15 K)
CCCCO [butan-1-ol] + CCCCCCN | – | – | – | – | – | – | – | – | – | 18.192 ± 0.73 | 17.545 ± 0.71 | 16.933 ± 0.7 | 1.39931 ± 0.00033 | 1.39733 ± 0.00033 | 1.39529 ± 0.00033
CCCO [propan-1-ol] | 803.66 ± 1.9 | 799.68 ± 1.9 | 795.66 ± 1.9 | 1.38514 ± 0.00033 | 1.38306 ± 0.00033 | 1.38102 ± 0.00033 | 21.15 ± 0.78 | 20.449 ± 0.77 | 19.784 ± 0.76 | – | – | – | – | – | –
CCCCCCN [1-hexanamine] | 764.43 ± 1.8 | 760.19 ± 1.8 | 755.9 ± 1.8 | 1.41808 ± 0.00033 | 1.41563 ± 0.00033 | 1.41321 ± 0.00033 | 3.964 ± 0.37 | 3.904 ± 0.37 | 3.846 ± 0.36 | – | – | – | – | – | –
CCCCO [butan-1-ol] | 809.85 ± 1.9 | 806.06 ± 1.9 | 802.22 ± 1.9 | 1.39931 ± 0.00033 | 1.39733 ± 0.00033 | 1.39529 ± 0.00033 | 18.192 ± 0.73 | 17.545 ± 0.71 | 16.933 ± 0.7 | – | – | – | – | – | –
CO [methanol] + CCCCCCN | – | – | – | – | – | – | – | – | – | 33.569 ± 0.97 | 32.619 ± 0.96 | 33.569 ± 0.97 | 1.32862 ± 0.00033 | 1.32654 ± 0.00033 | 1.32439 ± 0.00033
CO [methanol] | 791.63 ± 1.9 | 786.95 ± 1.9 | 782.22 ± 1.9 | 1.32862 ± 0.00033 | 1.32654 ± 0.00033 | 1.32439 ± 0.00033 | 33.569 ± 0.97 | 32.619 ± 0.96 | 31.652 ± 0.95 | – | – | – | – | – | –
CCCO [propan-1-ol] + CCCCCCN | – | – | – | – | – | – | – | – | – | 21.15 ± 0.78 | 20.449 ± 0.77 | 19.784 ± 0.76 | 1.38514 ± 0.00033 | 1.38306 ± 0.00033 | 1.38102 ± 0.00033
